pKi: −log10 of the molar value.

Assay [1] deals with human recombinant dopamine D2 receptor (Homo sapiens (Human), UniProt P14416). Kind of assay: Test of binding inhibition for dopamine D2 receptor ([3H]-Methylspiperone SPA). To be noted: [3H]-Methylspiperone 1.2 nM, Jump-In HEK cell membranes; read-out: hD2_Ki. On the procedure:
(§1) (Experimental Conditions)
Cell membranes: Jump-In HEK cell membranes expressing human recombinant dopamine D2 receptor (2 μg/well)
(§2) Non-specific ligand: (final concentration) 10 μM Butaclamol [(+)-Butaclamol Hydrochloride, D033, Sigma]
(§3) SPA beads solution: SPA beads [WGA PVT SPA Scintillation Beads, RPNQ0001 (500 mg), RPNQ0060 (2 g), PerkinElmer] (0.2 mg/well)
(§4) Incubation time and temperature: 120 min at 25° C.
(§5) Butaclamol or the compounds of the present invention were weighed and DMSO was added to make a 10 mM solution. This solution was diluted to each concentration.
(§6) SPA beads were weighed and stirred in water to make a 50 mg/mL solution. Using this solution, a mixture with the cell membranes was prepared.
Jump-In HEK Cell membranes (final reaction amount: 2 μg protein/well), the SPA beads solution (final reaction amount: 0.2 mg/well) and the buffer solution were mixed, and the mixed solution was left still for 1 hour or more at 4° C. Then, 50 μL of the mixture was added to each well of the plate. […] Non-specific binding was calculated based on the radioactivity of [^3H]-Methylspiperone in the presence of 10 μM non-labeled Butaclamol. The total binding was calculated using the radioactivity of [^3H]-Methylspiperone in the absence of the compounds of the present invention (Vehicle). The Ki values were calculated from dose-response curves.
(§7) Binding activities of the compounds of the present invention were calculated from the following Binding Inhibition Rate (%): Inhibition Rate (%)=[1−(c−a)/(b−a)]×100 • a: Average cpm of non-specific binding • b: Average cpm of total binding • c: Cpm in the presence of each test compound

Assay [2] deals with human recombinant dopamine D3 receptor (Homo sapiens (Human), UniProt P35462). Kind of assay: Test of binding inhibition for dopamine D3 receptor ([3H]-Methylspiperone SPA). To be noted: Jump-In HEK cell membranes, 2 nM [3H]-Methylspiperone, 120 min at 25° C.; read-out: hD3_Ki. On the procedure:
as §1
Cell membranes: Jump-In HEK cell membranes expressing human recombinant dopamine D3 receptor (4 μg/well)
as §2, §3, §4, §5
[^3H]-Methylspiperone was weighed and the buffer solution was added to make a 6 nM solution.
as §6
Jump-In HEK Cell membranes (final reaction amount: 4 μg protein/well), the SPA beads solution (final reaction amount: 0.2 mg/well) and the buffer solution were mixed and the mixed solution was left still for 1 hour or more at 4° C. Then, 50 μL of the mixture was added to each well of the plate. In addition, 25 μL of 6 nM [^3H]-Methylspiperone (final concentration: 2 nM) was added to each well. […] Non-specific binding was calculated based on the radioactivity of [^3H]-Methylspiperone in the presence of 10 μM non-labeled Butaclamol. The total binding was calculated using the radioactivity of [H]-Methylspiperone in the absence of the compounds of the present invention (vehicle). The Ki values were calculated from dose-response curves.
as §7

Sequence of human recombinant dopamine D3 receptor (P35462 whole entry): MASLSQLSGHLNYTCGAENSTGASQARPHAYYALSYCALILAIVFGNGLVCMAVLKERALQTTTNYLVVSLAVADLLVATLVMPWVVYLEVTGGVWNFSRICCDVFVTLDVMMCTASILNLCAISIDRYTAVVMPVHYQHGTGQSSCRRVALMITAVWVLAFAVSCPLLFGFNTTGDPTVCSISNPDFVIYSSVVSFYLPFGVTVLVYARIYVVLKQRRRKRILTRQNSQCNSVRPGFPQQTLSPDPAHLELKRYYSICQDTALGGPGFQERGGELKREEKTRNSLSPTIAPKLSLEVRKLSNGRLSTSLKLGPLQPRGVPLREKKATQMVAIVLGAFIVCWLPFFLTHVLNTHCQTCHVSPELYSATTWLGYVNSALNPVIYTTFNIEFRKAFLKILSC
Sequence of human recombinant dopamine D2 receptor (P14416 whole entry): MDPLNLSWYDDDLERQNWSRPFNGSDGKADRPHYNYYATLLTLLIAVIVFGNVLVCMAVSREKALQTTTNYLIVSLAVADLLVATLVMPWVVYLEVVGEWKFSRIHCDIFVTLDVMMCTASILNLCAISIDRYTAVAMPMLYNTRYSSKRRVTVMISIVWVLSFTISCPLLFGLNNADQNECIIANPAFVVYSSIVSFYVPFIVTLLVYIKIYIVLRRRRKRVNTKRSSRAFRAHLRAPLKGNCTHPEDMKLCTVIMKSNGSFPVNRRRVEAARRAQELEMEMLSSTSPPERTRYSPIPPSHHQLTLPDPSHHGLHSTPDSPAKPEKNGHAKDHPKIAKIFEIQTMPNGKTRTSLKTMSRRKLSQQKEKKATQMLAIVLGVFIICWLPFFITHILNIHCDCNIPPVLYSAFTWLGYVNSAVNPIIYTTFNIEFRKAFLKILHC

`Cc1ncccc1C(=O)N[C@H]1CC[C@H](CCN2CCc3ccc(CCC(F)(F)F)nc3CC2)CC1` [I′-1]: the pKi in assay [1] is 6.04; in assay [2] it was 9.37.
The matching figures for `COc1cc(CC(=O)N[C@H]2CC[C@H](CCN3CCc4ccc(CCC(F)(F)F)nc4CC3)CC2)on1` [I′-2]: less than 5.64 and 9.68.
Consider `Cc1nnc(CC(=O)N[C@H]2CC[C@H](CCN3CCc4ccc(CCC(F)(F)F)nc4CC3)CC2)o1` [I′-3], for which the results for the pKi in assay [1] and in assay [2] were 5.96 and 9.74, respectively.
With `Cn1cc(CC(=O)N[C@H]2CC[C@H](CCN3CCc4ccc(CCC(F)(F)F)nc4CC3)CC2)cn1` [I′-4], the pKi is 5.92 in assay [1] and 9.66 in assay [2].
The matching figures for `Cn1c(C(=O)N[C@H]2CC[C@H](CCN3CCc4ccc(CCC(F)(F)F)nc4CC3)CC2)cccc1=O` [I′-5]: 6.21 and 9.66.
The matching figures for `Cc1ncc(OCC(=O)N[C@H]2CC[C@H](CCN3CCc4ccc(CCC(F)(F)F)nc4CC3)CC2)cn1` [I′-7]: 5.96 and 9.92.
The matching figures for `Cc1cc(OCC(=O)N[C@H]2CC[C@H](CCN3CCc4ccc(CCC(F)(F)F)nc4CC3)CC2)no1` [I′-8]: less than 5.64 and 10.15.
As for `Cn1cc2c(C(=O)N[C@H]3CC[C@H](CCN4CCc5ccc(CCC(F)(F)F)nc5CC4)CC3)ccc(F)c2n1` [I′-9], the pKi is 6.28 in assay [1] and 9.96 in assay [2].
The matching figures for `Cc1ncc(CC(=O)N[C@H]2CC[C@H](CCN3CCc4ccc(CCC(F)(F)F)nc4CC3)CC2)o1` [I′-10]: 5.96 and 9.64.
The matching figures for `Cc1nc(CC(=O)N[C@H]2CC[C@H](CCN3CCc4ccc(CCC(F)(F)F)nc4CC3)CC2)no1` [I′-11]: 5.92 and 9.74.
Regarding `Cc1nnc(CC(=O)N[C@H]2CC[C@H](CCN3CCc4ccc(CCC(F)(F)F)nc4CC3)CC2)s1` [I′-12], the results for the pKi in assay [1] and in assay [2] were 6.09 and 9.54, respectively.
The matching figures for `Cc1cnc(OCC(=O)N[C@H]2CC[C@H](CCN3CCc4ccc(CCC(F)(F)F)nc4CC3)CC2)cn1` [I′-13]: 6.04 and 9.37.
For `Cc1nc(CC(=O)N[C@H]2CC[C@H](CCN3CCc4ccc(CCC(F)(F)F)nc4CC3)CC2)nn1C` [I′-14], the pKi was less than 5.64 in assay [1] and 9.68 in assay [2].
For `Cc1nc(CC(=O)N[C@H]2CC[C@H](CCN3CCc4ccc(CCC(F)(F)F)nc4CC3)CC2)n(C)n1` [I′-15], the pKi in assay [1] is 5.77; in assay [2], 8.85.
The matching figures for `Cc1ncc(CC(=O)N[C@H]2CC[C@H](CCN3CCc4ccc(CCC(F)(F)F)nc4CC3)CC2)cn1` [I′-16]: 5.74 and 9.44.
The matching figures for `Cc1cc(CC(=O)N[C@H]2CC[C@H](CCN3CCc4ccc(CCC(F)(F)F)nc4CC3)CC2)on1` [I′-17]: less than 5.64 and 9.82.
As to `Cn1cc(CC(=O)N[C@H]2CC[C@H](CCN3CCc4ccc(CCC(F)(F)F)nc4CC3)CC2)c(F)n1` [I′-18], the pKi in assay [1] is 6.00; in assay [2], 9.42.
The matching figures for `Cn1ncc(CC(=O)N[C@H]2CC[C@H](CCN3CCc4ccc(CCC(F)(F)F)nc4CC3)CC2)c1F` [I′-19]: 5.96 and 9.44.
The matching figures for `Cc1ncc(/C=C/C(=O)N[C@H]2CC[C@H](CCN3CCc4ccc(CCC(F)(F)F)nc4CC3)CC2)cn1` [I′-20]: 6.59 and 9.42.
The matching figures for `Cc1cc(CC(=O)N[C@H]2CC[C@H](CCN3CCc4ccc(CCC(F)(F)F)nc4CC3)CC2)no1` [I′-21]: less than 5.64 and 9.00.
On to `Cn1ncc(CC(=O)N[C@H]2CC[C@H](CCN3CCc4nc(OCC(F)(F)F)sc4CC3)CC2)c1F` [I′-22], for which the values for the pKi in assay [1] and in assay [2] were 5.70 and 10.00, respectively.
For `Cn1ncc(CC(=O)N[C@H]2CC[C@](F)(CCN3CCc4nc(OCC(F)(F)F)sc4CC3)CC2)c1F` [I′-23], the results for the pKi in assay [1] and in assay [2] were less than 5.66 and 9.55, respectively.
The matching figures for `Cn1cc(CC(=O)N[C@H]2CC[C@H](CCN3CCc4nc(OCC(F)(F)F)sc4CC3)CC2)c(F)n1` [I′-24]: 6.20 and 9.77.
The matching figures for `Cn1cc(CC(=O)N[C@H]2CC[C@](F)(CCN3CCc4nc(OCC(F)(F)F)sc4CC3)CC2)c(F)n1` [I′-25]: 6.14 and 9.54.
The matching figures for `Cn1ncc(CC(=O)N[C@H]2CC[C@H](CCN3CCc4nc(OCC(C)(F)F)sc4CC3)CC2)c1F` [I′-26]: 6.06 and 9.77.
Regarding `Cn1cc(CC(=O)N[C@H]2CC[C@H](CCN3CCc4nc(OCC(C)(F)F)sc4CC3)CC2)c(F)n1` [I′-27], the pKi in assay [1] was less than 5.66; in assay [2], 10.05.
The matching figures for `Cn1ncc(CC(=O)N[C@H]2CC[C@H](CCN3CCc4nc(OCC(F)F)sc4CC3)CC2)c1F` [I′-28]: 5.82 and 9.68.
The matching figures for `Cn1ncc(CC(=O)N[C@H]2CC[C@](F)(CCN3CCc4nc(OCC(F)F)sc4CC3)CC2)c1F` [I′-29]: less than 5.66 and 8.51.
The matching figures for `Cn1cc(CC(=O)N[C@H]2CC[C@H](CCN3CCc4nc(OCC(F)F)sc4CC3)CC2)c(F)n1` [I′-30]: 5.80 and 9.72.
With `Cn1cc(CC(=O)N[C@H]2CC[C@](F)(CCN3CCc4nc(OCC(F)F)sc4CC3)CC2)c(F)n1` [I′-31], the pKi was 5.89 in assay [1] and 9.24 in assay [2].
The matching figures for `Cn1cc(CC(=O)N[C@H]2CC[C@H](CCN3CCc4ccc(OCC(F)F)nc4CC3)CC2)c(F)n1` [I′-32]: 5.92 and 9.80.
The matching figures for `Cn1ncc(CC(=O)N[C@H]2CC[C@H](CCN3CCc4ccc(OCC(F)F)nc4CC3)CC2)c1F` [I′-33]: 5.80 and 9.07.
The matching figures for `Cn1ncc(CC(=O)N[C@H]2CC[C@](F)(CCN3CCc4ccc(OCC(F)F)nc4CC3)CC2)c1F` [I′-35]: 5.74 and 9.39.
As for `Cn1ncc(CC(=O)N[C@H]2CC[C@H](CCN3CCc4nc(OCC(F)(F)F)sc4CC3)CC2)n1` [I′-36], the pKi in assay [1] was 6.13; in assay [2], 10.15.
For `Cn1ncc(CC(=O)N[C@H]2CC[C@H](CCN3CCc4nc(OCC(F)F)sc4CC3)CC2)n1` [I′-40], the pKi is 5.72 in assay [1] and 9.72 in assay [2].
The matching figures for `Cn1ncc(CC(=O)N[C@H]2CC[C@H](CCN3CCc4ccc(OCC(C)(F)F)nc4CC3)CC2)n1` [I′-42]: 6.30 and 10.80.
For `Cn1ncc(CC(=O)N[C@H]2CC[C@](F)(CCN3CCc4ccc(OCC(F)(F)F)nc4CC3)CC2)n1` [I′-43], the pKi was 6.46 in assay [1] and 10.11 in assay [2].
The matching figures for `Cn1ncc(CC(=O)N[C@H]2CC[C@H](CCN3CCc4ccc(OCC(F)F)nc4CC3)CC2)n1` [I′-44]: 5.70 and 9.96.
The matching figures for `Cc1ncc(/C=C/C(=O)N[C@H]2CC[C@H](CCN3CCc4sc(C5CC(F)(F)C5)nc4C3)CC2)cn1` [I′-45]: 6.68 and 9.96.
The matching figures for `Cc1ncc(OCC(=O)N[C@H]2CC[C@](F)(CCN3CCc4ccc(OCC(C)(F)F)nc4CC3)CC2)cn1` [I′-46]: 6.59 and 9.48.

Source of the values: patent publication US11578084B2, “Condensed ring compounds having dopamine D3 receptor antagonistic effect” (Shionogi & Co., Ltd., priority 2018, dated 2023).
